According to ChEMBL document CHEMBL3351810, “[(11)C-carbonyl]CEP-32496: radiosynthesis, biodistribution and PET study of brain uptake in P-gp/BCRP knockout mice” (Bioorg Med Chem Lett, 2014):

Assays:
[1] = test system: Heart; experiment: Biodistribution in mouse heart at 8.4 MBq/0.1 ml, iv after 5 mins by PET imaging analysis; type: ADME, organism-based; details: in vivo
[2] = test system: Heart; experiment: Biodistribution in mouse heart at 8.4 MBq/0.1 ml, iv after 15 mins by PET imaging analysis; type: ADME, organism-based; details: in vivo, 0.25 h
[3] = test system: Heart; experiment: Biodistribution in mouse heart at 8.4 MBq/0.1 ml, iv after 30 mins by PET imaging analysis; type: ADME, organism-based; details: in vivo, 0.5 h
[4] = test system: Heart; experiment: Biodistribution in mouse heart at 8.4 MBq/0.1 ml, iv after 60 mins by PET imaging analysis; type: ADME, organism-based; details: in vivo, 1 h
[5] = test system: Lung; experiment: Biodistribution in mouse lung at 8.4 MBq/0.1 ml, iv after 1 min by PET imaging analysis; type: ADME, organism-based; details: in vivo
[6] = test system: Lung; experiment: Biodistribution in mouse lung at 8.4 MBq/0.1 ml, iv after 5 mins by PET imaging analysis; type: ADME, organism-based; details: in vivo
[7] = test system: Lung; experiment: Biodistribution in mouse lung at 8.4 MBq/0.1 ml, iv after 15 mins by PET imaging analysis; type: ADME, organism-based; details: in vivo, 0.25 h
[8] = test system: Lung; experiment: Biodistribution in mouse lung at 8.4 MBq/0.1 ml, iv after 30 mins by PET imaging analysis; type: ADME, organism-based; details: in vivo, 0.5 h
[9] = test system: Lung; experiment: Biodistribution in mouse lung at 8.4 MBq/0.1 ml, iv after 60 mins by PET imaging analysis; type: ADME, organism-based; details: in vivo, 1 h
[10] = test system: Liver; experiment: Biodistribution in mouse liver at 8.4 MBq/0.1 ml, iv after 1 min by PET imaging analysis; type: ADME, organism-based; details: in vivo
[11] = test system: Liver; experiment: Biodistribution in mouse liver at 8.4 MBq/0.1 ml, iv after 5 mins by PET imaging analysis; type: ADME, organism-based; details: in vivo
[12] = test system: Liver; experiment: Biodistribution in mouse liver at 8.4 MBq/0.1 ml, iv after 15 mins by PET imaging analysis; type: ADME, organism-based; details: in vivo, 0.25 h
[13] = test system: Liver; experiment: Biodistribution in mouse liver at 8.4 MBq/0.1 ml, iv after 30 mins by PET imaging analysis; type: ADME, organism-based; details: in vivo, 0.5 h
[14] = test system: Liver; experiment: Biodistribution in mouse liver at 8.4 MBq/0.1 ml, iv after 60 mins by PET imaging analysis; type: ADME, organism-based; details: in vivo, 1 h
[15] = test system: Pancreas; experiment: Biodistribution in mouse pancreas at 8.4 MBq/0.1 ml, iv after 1 min by PET imaging analysis; type: ADME, organism-based; details: in vivo
[16] = test system: Pancreas; experiment: Biodistribution in mouse pancreas at 8.4 MBq/0.1 ml, iv after 5 mins by PET imaging analysis; type: ADME, organism-based; details: in vivo
[17] = test system: Pancreas; experiment: Biodistribution in mouse pancreas at 8.4 MBq/0.1 ml, iv after 15 mins by PET imaging analysis; type: ADME, organism-based; details: in vivo, 0.25 h
[18] = test system: Pancreas; experiment: Biodistribution in mouse pancreas at 8.4 MBq/0.1 ml, iv after 30 mins by PET imaging analysis; type: ADME, organism-based; details: in vivo, 0.5 h
[19] = test system: Pancreas; experiment: Biodistribution in mouse pancreas at 8.4 MBq/0.1 ml, iv after 60 mins by PET imaging analysis; type: ADME, organism-based; details: in vivo, 1 h
[20] = test system: Spleen; experiment: Biodistribution in mouse spleen at 8.4 MBq/0.1 ml, iv after 1 min by PET imaging analysis; type: ADME, organism-based; details: in vivo
[21] = test system: Spleen; experiment: Biodistribution in mouse spleen at 8.4 MBq/0.1 ml, iv after 5 mins by PET imaging analysis; type: ADME, organism-based; details: in vivo
[22] = test system: Spleen; experiment: Biodistribution in mouse spleen at 8.4 MBq/0.1 ml, iv after 15 mins by PET imaging analysis; type: ADME, organism-based; details: in vivo, 0.25 h
[23] = test system: Spleen; experiment: Biodistribution in mouse spleen at 8.4 MBq/0.1 ml, iv after 30 mins by PET imaging analysis; type: ADME, organism-based; details: in vivo, 0.5 h
[24] = test system: Spleen; experiment: Biodistribution in mouse spleen at 8.4 MBq/0.1 ml, iv after 60 mins by PET imaging analysis; type: ADME, organism-based; details: in vivo, 1 h
[25] = test system: Kidney; experiment: Biodistribution in mouse kidney at 8.4 MBq/0.1 ml, iv after 1 min by PET imaging analysis; type: ADME, organism-based; details: in vivo
[26] = test system: Kidney; experiment: Biodistribution in mouse kidney at 8.4 MBq/0.1 ml, iv after 5 mins by PET imaging analysis; type: ADME, organism-based; details: in vivo
[27] = test system: Kidney; experiment: Biodistribution in mouse kidney at 8.4 MBq/0.1 ml, iv after 15 mins by PET imaging analysis; type: ADME, organism-based; details: in vivo, 0.25 h
[28] = test system: Kidney; experiment: Biodistribution in mouse kidney at 8.4 MBq/0.1 ml, iv after 30 mins by PET imaging analysis; type: ADME, organism-based; details: in vivo, 0.5 h
[29] = test system: Kidney; experiment: Biodistribution in mouse kidney at 8.4 MBq/0.1 ml, iv after 60 mins by PET imaging analysis; type: ADME, organism-based; details: in vivo, 1 h
[30] = test system: Brain; experiment: Ratio of AUC (0 to 90 mins) in P-gp/BCRP knockout mouse brain to AUC (0 to 90 mins) in wild type mouse brain; details: in vivo

## COc1cc2ncnc(Oc3cccc(N[11C](=O)Nc4cc(C(C)(C)C(F)(F)F)on4)c3)c2cc1OC.Cl
[1]
  Drug uptake: 4.43 % ID/g
[2]
  Drug uptake: 3.56 % ID/g
[3]
  Drug uptake: 3.08 % ID/g
[4]
  Drug uptake: 1.98 % ID/g
[5]
  Drug uptake: 14.3 % ID/g
[6]
  Drug uptake: 4.75 % ID/g
[7]
  Drug uptake: 3.76 % ID/g
[8]
  Drug uptake: 3.34 % ID/g
[9]
  Drug uptake: 2.24 % ID/g
[10]
  Drug uptake: 17.18 % ID/g
[11]
  Drug uptake: 15.3 % ID/g
[12]
  Drug uptake: 17.4 % ID/g
[13]
  Drug uptake: 18.42 % ID/g
[14]
  Drug uptake: 12.69 % ID/g
[15]
  Drug uptake: 2.96 % ID/g
[16]
  Drug uptake: 2.77 % ID/g
[17]
  Drug uptake: 3.52 % ID/g
[18]
  Drug uptake: 3.94 % ID/g
[19]
  Drug uptake: 2.66 % ID/g
[20]
  Drug uptake: 3.92 % ID/g
[21]
  Drug uptake: 2.05 % ID/g
[22]
  Drug uptake: 2.05 % ID/g
[23]
  Drug uptake: 2.03 % ID/g
[24]
  Drug uptake: 1.36 % ID/g
[25]
  Drug uptake: 12.33 % ID/g
[26]
  Drug uptake: 8.36 % ID/g
[27]
  Drug uptake: 7.68 % ID/g
[28]
  Drug uptake: 7.44 % ID/g
[29]
  Drug uptake: 4.91 % ID/g
[30]
  Ratio AUC: 8
